Test results as given in patent US20110280940A1, “Di-Vanilloyl And Tri-Vanilloyl Derivatives For Use In Anti-Cancer Therapy” (priority 2008, published 2011).

Columns and labels:
Erk2 = Erk2 (Rattus norvegicus, UniProt P63086); assay: Kinase activity assay, Erk2; type: biochemical; conditions: 10 μM, 1% DMSO, 15 μM ATP; residual activity
Experimental: (§1) Buffer A: 10 mM MgCl2, 1 mM EGTA, 1 mM DTT, 25 mM Tris-HCl pH 7.5, 50 μg heparin/ml. Buffer C: 60 mM β-glycerophosphate, 15 mM p-nitrophenylphosphate, 25 mM Mops (pH 7.2), 5 mM EGTA, 15 mM MgCl2, 1 mM DTT, 1 mM sodium vanadate, 1 mM phenyl phosphate.
(§2) Kinase activities were assayed in Buffer A or C, at 30° C., at a final ATP concentration of 15 μM. Blank values were subtracted and activities expressed in % of the maximal activity, i.e. in the absence of inhibitors. Controls were performed with appropriate dilutions of DMSO.
Erk2 (rat, recombinant) was assayed as described for CDK1 but using the specific substrate Ets1 (amino acids 1-138) in buffer A.

CDK2/cyclin A = molecular target: T1, CDK2/cyclin A (Homo sapiens, UniProt P24941); assay: Kinase activity assay, CDK2A; type: biochemical; conditions: 10 μM, 1% DMSO, 15 μM ATP; residual activity
T1 construct: made in house
Experimental: as §1, §2
CDK1/cyclin B (M phase starfish oocytes, native), CDK2/cyclin A, CDK2/cyclin E, CDK5/p25 and CDK7/cyclin H (human, recombinant) were prepared as previously described (Leclerc et al., 2001, J. Biol. Chem. 2001, 276, 251-260; Bach et al., 2005, J Biol Chem 280: 31208-31219). Their kinase activity was assayed in buffer C, with 1 mg histone H1/ml, in the presence of 15 μM [gamma-^33P] ATP (3,000 Ci/mmol; 10 mCi/ml) in a final volume of 30 μl. After 30 min incubation at 30° C., 25 μl aliquots of supernatant were spotted onto 2.5×3 cm pieces of Whatman P81 phosphocellulose paper, and, 20 sec later, the filters were washed five times (for at least 5 min each time) in a solution of 10 ml phosphoric acid/liter of water. The wet filters were counted in the presence of 1 ml ACS (Amersham) scintillation fluid.

GSK-3 = assay: Kinase activity assay, GSK3; type: biochemical, porcine; conditions: 10 μM, 1% DMSO, 15 μM ATP; residual activity
Experimental: as §1, §2
GSK-3 (porcine brain, native) was assayed, as described for CDK1 but in Buffer A and using a GSK-3 specific substrate (GS-1: […]pEDEEE) (Seq. ID NO 1) (pS stands for phosphorylated serine) (Primot et al., 2000, Protein Expr. & Purif. 20 (3), 394-404). GS-1 was synthesized by Millegen (Labege, France).

[1] = test system: PC-3 prostate cancer cells; assay: MTT colorimetric assay, overall cell growth, PC-3; type: cell-based, human; conditions: Homo sapiens, 72 hours of incubation, read-out: In Vitro IC50 Growth Inhibitory Values, PC-3
Method in brief: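 Growth is measured as remaining living cells relative to untreated controls after 72 h at 37 °C with compound at 10^-8 to 10^-4 M. Readout is MTT formazan absorbance at 570 nm.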

Sequence of Erk2 (P63086 whole entry): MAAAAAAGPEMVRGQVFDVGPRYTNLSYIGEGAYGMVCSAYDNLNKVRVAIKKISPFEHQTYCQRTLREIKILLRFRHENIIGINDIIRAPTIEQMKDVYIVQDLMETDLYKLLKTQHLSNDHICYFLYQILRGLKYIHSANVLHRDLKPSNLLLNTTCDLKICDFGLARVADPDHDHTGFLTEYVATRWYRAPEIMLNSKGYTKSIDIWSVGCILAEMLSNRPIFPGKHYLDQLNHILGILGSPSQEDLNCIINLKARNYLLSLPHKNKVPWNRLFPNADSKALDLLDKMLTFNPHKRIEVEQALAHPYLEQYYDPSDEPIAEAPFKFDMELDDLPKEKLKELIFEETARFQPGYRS

| SMILES | % ENZYMATIC ACTIVITY, Erk2 (Erk2) [%] | % ENZYMATIC ACTIVITY, CDK2A (CDK2/cyclin A) [%] | % ENZYMATIC ACTIVITY, GSK3 (GSK-3) [%] | IC50 [1] [mM] |
| --- | --- | --- | --- | --- |
| COc1cc(C(=O)OCCOC(=O)c2ccc(O)c(OC)c2)ccc1O [DLT1, Ethane-1,2-diyl bis-(4-hydroxy-3-methoxybenzoate)] | 99 | 91 | 77 |  |
| COc1cc(C(=O)O)ccc1O [vanillic acid, reference compound] |  |  |  | > 1 |
